Experimental data published in PubChem BioAssay (NCI).
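Abbreviation: GI50, concentration required for 50% inhibition of growth. The concentration for full growth arrest is given as TGI.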

Tests used:
Assay in all cases: growth of human tumour cells (NCI), 384-well format
MDA-MB-231 breast = system: MDA-MB-231 breast
MDA-MB-468 breast = system: MDA-MB-468 breast
CAKI-1 renal = system: CAKI-1 renal
HOP-62 NSCLC = system: HOP-62 NSCLC
SR leukemia = system: SR leukemia
SF-268 CNS = system: SF-268 CNS
MALME-3M melanoma = system: MALME-3M melanoma
CCRF-CEM leukemia = system: CCRF-CEM leukemia
NCI-H23 lung = system: NCI-H23 lung
SK-OV-3 ovarian = system: SK-OV-3 ovarian
T-47D breast = system: T-47D breast
UACC-257 melanoma = system: UACC-257 melanoma
MOLT-4 leukemia = system: MOLT-4 leukemia
SK-MEL-5 melanoma = system: SK-MEL-5 melanoma
K-562 leukemia = system: K-562 leukemia
A498 renal = system: A498 renal
OVCAR-5 ovarian = system: OVCAR-5 ovarian
NCI-H322M lung = system: NCI-H322M lung
HCC-2998 colon = system: HCC-2998 colon
NCI-H522 lung = system: NCI-H522 lung
OVCAR-3 ovarian = system: OVCAR-3 ovarian
LOX IMVI melanoma = system: LOX IMVI melanoma
HCT-15 colon = system: HCT-15 colon
PC-3 prostate = system: PC-3 prostate
DU-145 prostate = system: DU-145 prostate
RPMI-8226 leukemia = system: RPMI-8226 leukemia
SF-539 CNS = system: SF-539 CNS
SNB-19 CNS = system: SNB-19 CNS
OVCAR-4 ovarian = system: OVCAR-4 ovarian
786-0 renal = system: 786-0 renal
HOP-92 NSCLC = system: HOP-92 NSCLC
NCI/ADR-RES ovarian = system: NCI/ADR-RES ovarian
NCI-H226 lung = system: NCI-H226 lung
SK-MEL-2 melanoma = system: SK-MEL-2 melanoma
U251 glioblastoma = system: U251 glioblastoma
SNB-75 CNS = system: SNB-75 CNS
ACHN renal = system: ACHN renal
TK-10 renal = system: TK-10 renal
SN12C renal = system: SN12C renal
BT-549 breast = system: BT-549 breast
M14 melanoma = system: M14 melanoma
UO-31 renal = system: UO-31 renal
SK-MEL-28 melanoma = system: SK-MEL-28 melanoma
MDA-MB-435 melanoma = system: MDA-MB-435 melanoma
A549 NSCLC = system: A549 NSCLC
HCT-116 colon = system: HCT-116 colon
OVCAR-8 ovarian = system: OVCAR-8 ovarian

## C=CCN(/C=C1\C(=O)O[C@H](COC)[C@@]2(C)C1=C(O)C(=O)C1=C2[C@H](OC(C)=O)C[C@]2(C)C(=O)CC[C@@H]12)CC=C
MDA-MB-231 breast
  GI50: 3.68 µM
  TGI: > 100 µM
MDA-MB-468 breast
  GI50: 0.0764 µM
  TGI: 2.09 µM
CAKI-1 renal
  GI50: 2.75 µM
  TGI: > 100 µM
HOP-62 NSCLC
  GI50: 10.3 µM
  TGI: > 100 µM
SR leukemia
  GI50: 1.22 µM
  TGI: 2.51 µM
SF-268 CNS
  GI50: 1.82 µM
  TGI: 19.9 µM
MALME-3M melanoma
  GI50: 0.677 µM
  TGI: 12.2 µM
CCRF-CEM leukemia
  GI50: 0.723 µM
  TGI: 4.53 µM
NCI-H23 lung
  GI50: 4.35 µM
  TGI: 33.8 µM
SK-OV-3 ovarian
  GI50: 0.68 µM
  TGI: 15.3 µM
T-47D breast
  GI50: 0.724 µM
  TGI: 10.2 µM
UACC-257 melanoma
  GI50: 4.01 µM
  TGI: 43.9 µM
MOLT-4 leukemia
  GI50: 0.333 µM
  TGI: 2.02 µM
SK-MEL-5 melanoma
  GI50: 2.96 µM
  TGI: 14.7 µM
K-562 leukemia
  GI50: 17.6 µM
  TGI: > 100 µM
A498 renal
  GI50: 0.39 µM
  TGI: 5.3 µM
OVCAR-5 ovarian
  GI50: 3.62 µM
  TGI: 42.9 µM
NCI-H322M lung
  GI50: 1.21 µM
  TGI: 23.3 µM
HCC-2998 colon
  GI50: 0.671 µM
  TGI: 6.09 µM
NCI-H522 lung
  GI50: 2.08 µM
  TGI: 14.4 µM
OVCAR-3 ovarian
  GI50: 1.16 µM
  TGI: 12.2 µM
LOX IMVI melanoma
  GI50: 5.49 µM
  TGI: 39.1 µM
HCT-15 colon
  GI50: 2.98 µM
  TGI: 97.2 µM
PC-3 prostate
  GI50: 0.648 µM
  TGI: 18 µM
DU-145 prostate
  GI50: 4.41 µM
  TGI: 59.7 µM
RPMI-8226 leukemia
  GI50: 0.657 µM
  TGI: 3.16 µM
SF-539 CNS
  GI50: 7.45 µM
  TGI: > 100 µM
SNB-19 CNS
  GI50: 13.7 µM
  TGI: > 100 µM
OVCAR-4 ovarian
  GI50: 0.787 µM
  TGI: 33.5 µM
786-0 renal
  GI50: 4.45 µM
  TGI: 28.5 µM
HOP-92 NSCLC
  GI50: 2.47 µM
  TGI: 37.6 µM
NCI/ADR-RES ovarian
  GI50: 8.83 µM
  TGI: > 100 µM
NCI-H226 lung
  GI50: 2.76 µM
  TGI: 56.7 µM
SK-MEL-2 melanoma
  GI50: 2.36 µM
  TGI: 12.3 µM
U251 glioblastoma
  GI50: 13 µM
  TGI: 82.7 µM
SNB-75 CNS
  GI50: 1.57 µM
  TGI: 10.1 µM
ACHN renal
  GI50: 4.71 µM
  TGI: > 100 µM
TK-10 renal
  GI50: 1.19 µM
  TGI: 15.2 µM
SN12C renal
  GI50: 2.08 µM
  TGI: > 100 µM
BT-549 breast
  GI50: 0.553 µM
  TGI: 9.02 µM
M14 melanoma
  GI50: 2.82 µM
  TGI: 30.5 µM
UO-31 renal
  GI50: 2.81 µM
  TGI: > 100 µM
SK-MEL-28 melanoma
  GI50: 1.59 µM
  TGI: 19.7 µM
MDA-MB-435 melanoma
  GI50: 8.15 µM
  TGI: 38.1 µM
A549 NSCLC
  GI50: 1.11 µM
  TGI: 27.6 µM
HCT-116 colon
  GI50: 4.61 µM
  TGI: 31.4 µM
OVCAR-8 ovarian
  GI50: 3.85 µM
  TGI: > 100 µM
